Structures can show the parent of a compound that is named as a salt.
Biological target: human Fab of κ-type (Homo sapiens, UniProt P01834+P01857)
Test: STD NMR screening (1D saturation transfer difference) for binding to antibody
Set-up: key: 0 no; 1 weak; 2 strong signal
Conditions: 0.5 mM ligand; for NMR signal conc 2: 100 nM antibody; for NMR signal conc 1: 500 nM antibody, 298 K; for NMR signal conc 3: 20 nM antibody
Procedure: All NMR experiments were performed at 298 K on a Bruker Avance 500 MHz spectrometer. The 1D saturation transfer difference method (STD NMR) was used as screening assay (Mayer M. and Meyer B. 1999. Characterization of Ligand Binding by Saturation Transfer Difference NMR Spectroscopy. Angew. Chem., Int. Ed. 38: 1784-1788) using several antibody concentrations in order to differentiate between compounds with different binding strength (Peng J. W., Lepre C. A., Fejzo J., Abdul-Manan N. and Moore J. M. 2001. Nuclear Magnetic Resonance-Based Approaches for Lead Generation in Drug Discovery. Methods in Enzymology. 338: 202-230). The antibody used was a human Fab of κ-type. In all cases ligands were tested one-by-one. On-resonance irradiation was set at 0 ppm and off-resonance irradiation was set at −40 ppm. Irradiation time in each scan was 2 s and 16 K data points were collected with 1024 scans in total. Compounds for testing were dissolved in DMSOd6 to a concentration of 50 mM and 5 μL of the concentrated ligand solution was added to 495 μL buffer solution. The samples thus consisted of 0.5 mM ligand, 20 mM phosphate buffer, 100 mM NaCl and […] in D2O at pD 7.5, uncorrected reading on pH-meter.
Compounds were initially tested for binding with 0.5 μM antibody. Interesting ligands were further tested with protein concentrations of 100 or 20 nM. A one-dimensional ^1H-spectrum was acquired first and subsequently a saturation transfer difference (STD) spectrum was acquired. Each analysis took 60 minutes on the spectrometer. […] The analysis was setup for automation so that several samples could be analysed over night (usually 10-15 samples/night).
As many as 46 of the virtual screening hits were tested with NMR according to the procedure described above. The results from NMR screening together with additional compound data are compiled in Table 1 below. In total 24 compounds gave a positive result in the first round with the highest antibody concentration (500 nM). These 24 compounds were subjected to a second round with an antibody concentration of 100 nM. The 4 compounds showing the strongest signal in the second round were tested for binding in a third round with 20 nM antibody. Three of the compounds in the third round gave a positive result and where thus designated as the strongest binders to the antibody out of the 46 tested compounds.

Chain of human Fab of κ-type (P01857 with tags, fused parts or gaps, other chains not shown): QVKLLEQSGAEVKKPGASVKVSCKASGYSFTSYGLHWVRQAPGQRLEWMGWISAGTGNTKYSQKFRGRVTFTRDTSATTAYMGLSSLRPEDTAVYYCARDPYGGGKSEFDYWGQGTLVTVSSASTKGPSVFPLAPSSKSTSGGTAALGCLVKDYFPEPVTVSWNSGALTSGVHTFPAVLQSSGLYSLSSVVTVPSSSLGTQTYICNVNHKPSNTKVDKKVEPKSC

Compound	NMR signal conc 2	NMR signal conc 1	NMR signal conc 3
COC(=O)C1OC1c1cc(Cl)ccc1OC (centres unmarked) [AB_0001240, methyl 3-(5-chloro-2-methoxyphenyl)-2,3-epoxypropionate]	1	1	–
COc1ccc(CC(C)=O)cc1Br [AB_0000910, 3-bromo-4-methoxyphenylacetone]	2	2	0
OC(CNCc1ccc(Cl)cc1Cl)C(F)(F)F (centres unmarked) [AB_0001170, 3-[(2,4-dichlorobenzyl)amino]-1,1,1-trifluoro-2-propanol]	–	0	–
CC1(C)CC(=O)c2sc(NC(=O)c3cccnc3)nc2C1 [AB_0000750, n-(5,5-dimethyl-7-oxo-4,5,6,7-tetrahydro-benzothiazol-2-yl)-nicotinamide]	–	0	–
OC(CNCc1ccc(Cl)cc1)CSc1ccccc1 (centres unmarked) [AB_0001270, 1-[(4-chlorobenzyl)amino]-3-(phenylthio)propan-2-ol]	0	1	–
Sc1nnc(-c2csc(-c3ccccc3)n2)o1 [AB_0000760, 5-(2-phenyl-1,3-thiazol-4-yl)-1,3,4-oxadiazol-2-ylhydrosulfide]	0	1	–
CCCCc1c(O)nc2ccccn2c1=O [AB_0000990, 3-butyl-2-hydroxy-4h-pyrido[1,2-a]pyrimidin-4-one]	–	0	–
c1ccc(CCn2cc(-c3ccncc3)cn2)cc1 [AB_0001190, 4-[1-(2-phenylethyl)-(1h)-pyrazol-4-yl]pyridine]	0	2	–
CC1=NN(c2cccc(Cl)c2)C(=O)C1 [AB_0000530, 1-(3-chlorophenyl)-3-methyl-2-pyrazolin-5-one]	–	0	–
O=C1C=C(Cl)C(=O)N1c1ccccc1 [AB_0000930, 3-chloro-1-phenyl-pyrrole-2,5-dione]	–	0	–
O=C1SC(Br)C(=O)N1c1ccccc1 (centres unmarked) [AB_0000880, 5-bromo-3-phenyl-thiazolidine-2,4-dione]	–	0	–
FC(F)(F)c1cccc(-n2ccnc2)c1 [AB_0001220, 1-(3-trifluoromethylphenyl)imidazole]	0	2	–
COC(=O)NC(=O)c1nc(-c2ccccc2)c(C)o1 [AB_0000670, methyl n-[(5-methyl-4-phenyl-1,3-oxazol-2-yl)carbonyl]carbamate]	0	2	–
O=C(O)c1ccnn(-c2ccccc2)c1=O [AB_0001180, 3-oxo-2-phenyl-2,3-dihydro-4-pyridazinecarboxylic acid]	–	0	–
O=C1C(=Cc2ccccc2)C(=O)c2ccccc21 [AB_0000730, 2-benzylidene-1,3-indandione]	–	0	–
N=c1sccn1CC(=O)c1ccc2ccccc2c1 [AB_0001060, 2-(2-imino-thiazol-3-yl)-1-naphthalen-2-yl-ethanone]	0	2	–
CC(C)=CC1=C(O)C(=O)c2ccccc2C1=O [AB_0001040, 2-hydroxy-3-(2-methyl-1-propenyl)-1,4-naphthoquinone]	1	1	–
O=C(Cc1ncon1)Nc1ccc(F)cc1F [AB_0000690, n1-(2,4-difluorophenyl)-2-(1,2,4-oxadiazol-3-yl)acetamide]	–	0	–
Fc1cc(F)cc(Cc2nc(-c3cccs3)no2)c1 [AB_0001020, 5-(3,5-difluorobenzyl)-3-(2-thienyl)-1,2,4-oxadiazole]	0	1	–
CN(C)C(=O)N(C)c1ccc(Cl)c(Cl)c1 [AB_0001250, 1-(3,4-dichlorophenyl)-1,3,3-trimethylurea]	2	2	1
COC(=O)c1ccc2ccccc2c1O [AB_0001200, methyl 1-hydroxy-2-naphthoate]	0	1	–
O=C1C=CC(=O)N1c1cccc(Cl)c1 [AB_0001090, n-(3-chlorophenyl)-maleimide]	0	1	–
CCn1ccnc1CC1COc2ccccc2O1 (centres unmarked) [AB_0001070, imiloxan hydrochloride]	1	1	–

Compound	NMR signal conc 2	NMR signal conc 1	NMR signal conc 3
O=Cc1cccc(C(F)(F)F)c1Cl [AB_0001030, 2-chloro-3-(trifluoromethyl)benzaldehyde]	0	1	–
O=C(c1ccc2ccccc2c1)n1ccnc1 [AB_0000900, 1-(2-naphthoyl)imidazole]	–	0	–
Clc1ccc(COn2ccnc2)cc1Cl [AB_0001150, 1-[(3,4-dichlorobenzyl)oxy]-1h-imidazole]	0	2	–
O=C(c1cccs1)c1cnc2ccccn2c1=O [AB_0001300, 3-(2-thienylcarbonyl)-4h-pyrido[1,2-a]pyrimidin-4-one]	0	1	–
O=C1C(=O)N(c2ccccc2)C(=O)N1c1ccccc1 [AB_0000540, 1,3-diphenylparabanic acid]	–	0	–
O=C(CC1OC(=O)c2ccccc21)c1ccccn1 (centres unmarked) [AB_0000790, 3-[2-oxo-2-(2-pyridyl)ethyl]-1,3-dihydroisobenzofuran-1-one]	–	0	–
O=C1c2ccncc2C(=O)N1c1ccc(Cl)cc1 [AB_0000610, 2-(4-chlorophenyl)-2,3-dihydro-1h-pyrrolo[3,4-c]pyridine-1,3-dione]	–	0	–
CCOC(=O)c1c[nH]c2ccccc2c1=O [AB_0001100, ethyl 4-oxo-1,4-dihydroquinoline-3-carboxylate]	–	0	–
OCC(Oc1ccccc1)c1ccccc1 (centres unmarked) [AB_0000810, 2-phenoxy-2-phenyl-1-ethanol]	1	2	–
O=C(Nc1ccc(F)cc1)Oc1noc(-c2ccccc2)n1 [AB_0000740, 5-phenyl-1,2,4-oxadiazol-3-yl n-(4-fluorophenyl)carbamate]	–	0	–
CC1CN=C(SCc2ccccc2)N1.Cl (centres unmarked) [AB_0001080, 2-(benzylthio)-5-methyl-4,5-dihydro-1h-imidazol-3-ium chloride]	–	0	–
c1ccc(-c2nnc3ccccc3n2)cc1 [AB_0000600, 3-phenyl-1,2,4-benzotriazine]	1	1	–
OC(CNCc1ccccc1)C(F)(F)F (centres unmarked) [AB_0001000, 3-(benzylamino)-1,1,1-trifluoro-2-propanol]	0	1	–
CSCCNC(=O)c1nc2ccccc2c(=O)n1N [AB_0001130, 3-amino-n-[2-(methylthio)ethyl]-4-oxo-3,4-dihydroquinazoline-2-carboxamide]	–	0	–
O=C(c1ccccn1)C(O)c1ccccn1 (stereo not drawn) [AB_0000510, alpha-pyridoin]	–	0	–
Cc1cc(C)nc(SCC(=O)Nc2ccc(F)c(Cl)c2)n1 [AB_0000580, n1-(3-chloro-4-fluorophenyl)-2-[(4,6-dimethylpyrimidin-2-yl)thio]acetamide]	0	1	–
O=C(Cc1ncon1)Nc1ccc(F)c(F)c1F [AB_0000630, n1-(2,3,4-trifluorophenyl)-2-(1,2,4-oxadiazol-3-yl)acetamide]	–	0	–
N#CCc1ccc(C(=O)c2ccccc2F)s1 [AB_0001010, 2-[5-(2-fluorobenzoyl)-2-thienyl]acetonitrile]	2	2	2
O=C(COc1ccc2ccccc2c1)ON1C(=O)CCC1=O [AB_0001230, (2-naphthoxy)acetic acid, n-hydroxysuccinimide ester]	–	0	–
Clc1ccc(OCc2noc(CSc3ccccn3)n2)cc1 [AB_0001290, 3-[(4-chlorophenoxy)methyl]-5-[(2-pyridylthio)methyl]-1,2,4-oxadiazole]	1	2	–
S=C(Oc1ccccn1)c1csc(C2COc3ccccc3O2)n1 (centres unmarked) [AB_0001260, 2-pyridyl 2-(2,3-dihydro-1,4-benzodioxin-2-yl)-1,3-thiazole-4-carbothioate]	–	0	–
c1ccc(-c2nnc(-c3ccccn3)nn2)nc1 [AB_0000700, 3,6-di-2-pyridyl-1,2,4,5-tetrazine]	–	0	–
